The source of these data is patent US20150071904A1, “COMPOSITIONS AND METHODS TO BOOST ENDOGENOUS ROS PRODUCTION FROM BACTERIA” (Trustees of Boston University, priority 2012, published 2015).

Data set [1] has as its system Escherichia coli MG1655 wildtype and single-gene deletion strains. Briefly: Antimicrobial sensitivity assays (CFU time course of deletion strains and wildtype treated with oxidants or antibiotics). The class given is cell-based. The conditions noted are these: 500 ng/mL gentamicin, FIG. 6C. As for the experimental part: Escherichia coli MG1655 was used in this study. Genetic deletions of aceA, appB, atpC, cyoA, edd, fumB, fbaB, gdhA, gltB, gnd, mqo, nuoG, pfkB, pta, pykA, rpiB, sdhC, sucC, talB, tktB and zwf were transduced from the Keio single-gene deletion knockout library^63 into MG1655 using the P1 phage method, and confirmed with PCR. The media used for all experiments was M9 minimal media with 10 mM glucose as the sole carbon source or MOPS minimal media with 10 mM glucose (for the HyPer protein experiments).
Strains were grown aerobically from an initial inoculation of OD600=0.01 to OD600=0.16-0.20 in 250 mL baffled flasks filled to 1/10th the total volume and shaken at 300 rpm at 37° C. For menadione, H2O2, and ampicillin sensitivity assays, time-zero samples were collected (200-400 μL), then 1 mL aliquots were transferred to 14 mL test tubes, and appropriate volumes of menadione, H2O2, or ampicillin stock solutions, not in excess of 15 μL, were added to obtain the final concentrations (1 mM menadione, 5 mM H2O2, 7.5 μg/mL ampicillin, 100 ng/mL ofloxacin, 15 ng/mL ciprofloxacin, 500 ng/mL gentamicin, 10 μg/mL tetracycline, and 15 μg/mL chloramphenicol). […] Colony forming units were counted approximately 16-18 hours after plating.

The subject of data set [2] is Escherichia coli MG1655 wildtype cells. Briefly: Carboxin inhibitor experiments (CFU survival, alone and combined with H2O2 or ampicillin; dose response and synergy). The format is cell-based. On the procedure: Strains were grown aerobically from an initial inoculation of OD600=0.01 to OD600=0.16-0.20 in 250 mL baffled flasks filled to 1/10th the total volume and shaken at 300 rpm at 37° C. Time-zero samples were collected (200-400 μL), then 1 mL aliquots were transferred to 14 mL test tubes. Carboxin solubilized in 100% ethanol or ethanol alone was added to the tubes. […] Drug synergism was calculated using the Bliss Independence and Highest Single Agent models^52, 53. Specifically, the formula,
was used to calculate synergism with the Bliss Independence model. A and B are the effects of the two drugs in isolation, whereas, BICAB is the combined effect of the two drugs as predicted by the Bliss Independence model. If CAB, the experimentally-determined combined effect of the two drugs, is >BICAB, synergy is observed. In contrast, in the Highest Single Agent model, if CAB>max(A, B) synergy is observed. Since cell death was monitored, the quantitative effect of each compound was defined as the fractional reduction of the population, R=1−CFUt/CFU0, where CFUt is the number of CFUs measured after treatment, and CFU0 is the number of CFUs measured before treatment. R=1 indicates complete loss of the population, R=0 indicates a population in stasis, and R<0 indicates a growing population. […] The Bliss Independence model can be written as follows,
If A is a compound that reduces CFUs, such as ampicillin, its effect above the MIC will be 0≦A≦1, whereas if B is a compound that allows growth at all concentrations, its effect will be B<0 regardless of the concentration. Rearrangement of the above yields,
Since equation 3 yields BICAB/A<1 for all B<0 and 0<A<1, the Highest Single Agent model requires CAB/A>1 and the Bliss Independence model requires CAB/BICAB>1 for synergy, the Highest Single Agent model will always be a more strict synergy requirement under these conditions. […] Modeling Escherichia coli ROS Metabolism

The conditions of data set [3]: cited from earlier work.

Regarding gentamicin, in data set [1] (many predicted target deletion strains), the “sensitivity of many target strains compared to wildtype” value is “decreased sensitivity”. The “sensitivity of ΔatpC strain compared to wildtype” value in data set [1] (ΔatpC E. coli) is reported as “increased sensitivity”.

In the case of `CC1=C(C(=O)Nc2ccccc2)SCCO1` [carboxin], in data set [2] (500 μM carboxin + 10 μg/mL ampicillin, FIG. 4F), the “sensitivity of wildtype cells to ampicillin with carboxin compared to ampicillin alone” value is listed as “significantly more sensitive”. In data set [2] (500 μM carboxin + 5 mM H2O2, FIG. 4E), the “sensitivity of wildtype cells to H2O2 with carboxin compared to H2O2 alone” value is recorded as “increased sensitivity”. In addition, in data set [2] (carboxin alone, 500 μM, wildtype E. coli, FIGS. 4E, 4F), the “effect of carboxin alone on growth of wildtype cells” value was “no effect on the growth”. Also, the “lethality / growth of E. coli with carboxin” value in data set [2] (concentrations as high as 1 mM) was “non-lethal and allowed significant growth”. The “suitability as antibiotic adjuvant, human toxicity” value in data set [3] was “not suitable as an antibiotic adjuvant due to human toxicity issues”.

For `CC1(C)S[C@@H]2[C@H](NC(=O)[C@H](N)c3ccccc3)C(=O)N2[C@H]1C(=O)O` [ampicillin], the “ampicillin concentrations synergistic with carboxin” value in data set [2] (carboxin 250 μM or greater, Bliss Independence and Highest Single Agent models, FIG. 8) was 7.5 to 10 µg/mL.
